Data on 28 molecules can be found in patent US20260285831A1, “LACTAM DERIVATIVES FOR INHIBITING NLRP3 AND USES THEREOF” (Ventus Therapeutics U.S., Inc., priority 2023, published 2026).

Where two headings read alike, the source gives them in different places.

This experiment concerns the target T1, human NLRP3 (Homo sapiens, UniProt Q96P20).
T1 construct: Human whole blood is drawn from healthy volunteers after obtaining written informed consent; from tissue; host or cells: human whole blood from healthy volunteers (heparin lithium tubes)
Description: Human whole blood (hWB) NLRP3 assay (IL-1β release after LPS priming and ATP activation). The experiment is classed as cell-based. The conditions noted are these: for IC50: human whole blood, read-out: hWB IL-1β IC50; for hWB NLRP3 inhibitory activity compared to the (S)-isomer: isomer comparison, in words. On the procedure: Human Whole Blood (hWB) NLRP3 Assay
Human whole blood is drawn from healthy volunteers after obtaining written informed consent. Heparin lithium coated tubes are used to collect blood from volunteers. Blood samples are distributed on 96 well plates using 90 μl per well.
Priming procedure: Priming is performed by adding 5 μl of LPS (026:B6; Sigma L-2654) at a final concentration of 1 μg/ml for 4.5 hours in a humidified incubator with 37° C., 5% CO2. Thirty minutes prior to NLRP3 activation, 5 μl of a 20× compound solution or vehicle (2% dimethylsulfoxide (DMSO)) is added to each well and plates were incubated on a shaker (450 rpm) in a humidified incubator with 37° C., 5% CO2.
Alternative priming procedure: Thirty minutes prior to LPS priming, 5 μl of a 20× compound solution or vehicle (2% dimethylsulfoxide (DMSO)) is added to each well and plates were incubated on a shaker (450 rpm) in a humidified incubator with 37° C., 5% CO2. Priming is performed by adding 5 μl of LPS (026:B6; Sigma L-2654) at a final concentration of 1 μg/ml for 5 hours in a humidified incubator with 37° C., 5% CO2.
Activation is then performed by adding 3.3 μl of a 31×ATP solution per well. At the end of the 30 minutes stimulation, the plates are centrifuged (800 g, 10 min, room temperature) and the plasma from each well is frozen at −80° C. […] levels in the supernatant were analyzed using a mesoscale discovery assay (MSD K151TUK) according to the manufacturers' instructions.
There is no detectable difference in assay IC50 results using the priming procedure versus the alternative priming procedure.
Data provided in Table C, below. hWB […] Assay: A represents an IC50 value <0.3 μM; B represents an IC50 value ≥0.3 μM and <0.5 μM; C represents an IC50 value ≥0.5 μM and <1.0 μM; D represents an IC50 value ≥1.0 μM and <10 μM; E represents an IC50 value ≥10 μM. Dashed (--) lines indicate no data available.

The mark [1] stands for this setting: LPS 1 μg/ml priming, ATP activation, Table C, class symbols.
The mark [2] stands for this setting: numeric values of Tables D and E.

T1 sequence (Q96P20 whole entry): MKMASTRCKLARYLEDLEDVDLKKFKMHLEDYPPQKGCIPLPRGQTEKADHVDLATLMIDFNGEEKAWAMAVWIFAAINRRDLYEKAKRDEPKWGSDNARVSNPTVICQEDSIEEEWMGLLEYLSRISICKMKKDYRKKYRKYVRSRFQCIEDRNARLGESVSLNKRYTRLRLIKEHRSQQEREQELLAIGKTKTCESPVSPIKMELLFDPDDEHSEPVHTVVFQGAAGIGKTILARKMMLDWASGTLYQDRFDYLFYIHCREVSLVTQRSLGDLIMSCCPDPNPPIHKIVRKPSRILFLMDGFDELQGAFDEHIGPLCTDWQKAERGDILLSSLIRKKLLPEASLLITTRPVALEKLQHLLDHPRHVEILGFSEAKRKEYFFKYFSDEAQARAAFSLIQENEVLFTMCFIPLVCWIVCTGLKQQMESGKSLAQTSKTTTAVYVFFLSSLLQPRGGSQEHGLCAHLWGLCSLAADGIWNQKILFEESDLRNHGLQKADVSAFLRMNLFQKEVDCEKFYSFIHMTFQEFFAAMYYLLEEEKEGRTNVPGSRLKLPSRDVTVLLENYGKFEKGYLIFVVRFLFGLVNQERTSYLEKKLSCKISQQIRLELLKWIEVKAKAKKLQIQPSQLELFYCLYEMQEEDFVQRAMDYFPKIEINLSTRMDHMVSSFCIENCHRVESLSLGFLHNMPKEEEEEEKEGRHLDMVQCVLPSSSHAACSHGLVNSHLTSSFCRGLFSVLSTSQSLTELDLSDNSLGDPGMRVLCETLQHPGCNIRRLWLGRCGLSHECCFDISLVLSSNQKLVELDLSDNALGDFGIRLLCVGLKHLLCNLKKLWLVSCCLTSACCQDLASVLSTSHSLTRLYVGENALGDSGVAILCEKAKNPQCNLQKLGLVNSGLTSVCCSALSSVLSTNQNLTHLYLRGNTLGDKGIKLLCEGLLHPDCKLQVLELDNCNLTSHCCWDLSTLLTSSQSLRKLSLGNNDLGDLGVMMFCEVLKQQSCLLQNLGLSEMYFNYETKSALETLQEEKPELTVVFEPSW

The term IC50 denotes the point on the concentration scale where inhibition reaches its midpoint. For the molecule `CC1(C)C(=O)N(c2cccn(CCCC(=O)O)c2=O)c2c(F)cc(C3CC3)c(F)c21` [Compound 3, 4-(3-(5-cyclopropyl-4,7-difluoro-3,3-dimethyl-2-oxoindolin-1-yl)-2-oxopyridin-1(2H)-yl)butanoic acid], the half-maximal inhibitory concentration (IC50) reads like this: under setting [1], 1000 to 10000 nM; under setting [2], 1900 nM. As for `CC1(C)C(=O)N(c2nccn([C@@H]3CCC[C@H]3CC(=O)O)c2=O)c2c(F)cc(C3CC3)c(F)c21` (single isomer, unassigned) [Compound 20D*], the IC50 under setting [1] is 500 to 1000 nM.

With `CC1(C)C(=O)N(c2cc(C(F)(F)F)cn(CCCC(=O)O)c2=O)c2c(F)cc(C3CC3)c(F)c21` [Compound 12, 4-(3-(5-cyclopropyl-4,7-difluoro-3,3-dimethyl-2-oxoindolin-1-yl)-2-oxo-5-(trifluoromethyl)pyridin-1(2H)-yl)butanoic acid], under setting [1], the IC50 lay within 1000 to 10000 nM. Same read-out and setting: next, `CC1(C)C(=O)N(c2cccn(CCCC(=O)O)c2=O)c2c(F)cc(C3CC3)cc21` [Compound 2, 4-(3-(5-cyclopropyl-7-fluoro-3,3-dimethyl-2-oxoindolin-1-yl)-2-oxopyridin-1(2H)-yl)butanoic acid]: 1000 to 10000 nM; `Cc1ccn(CCCC(=O)O)c(=O)c1N1C(=O)C(C)(C)c2c(F)c(C3CC3)cc(F)c21` (single isomer, unassigned) [Compound 4A*, (Sa)-4-(3-(5-cyclopropyl-4,7-difluoro-3,3-dimethyl-2-oxoindolin-1-yl)-4-methyl-2-oxopyridin-1(2H)-yl)butanoic acid]: ≥ 10000 nM.

As to `C[C@H](CC(=O)O)CN1CC[C@H](N2C(=O)C(C)(C)c3c(F)c(C4CC4)cc(F)c32)C1=O` (single isomer, unassigned) [Compound 26D*], the 50% inhibitory concentration (IC50) under setting [1] is ≥ 10000 nM. Regarding `CC1(C)C(=O)N(c2cccn(CCCC(=O)O)c2=O)c2c(O)cc(Cl)cc21` [Compound 7, 4-(3-(5-chloro-7-hydroxy-3,3-dimethyl-2-oxoindolin-1-yl)-2-oxopyridin-1(2H)-yl)butanoic acid], the IC50 under setting [1] lay within 1000 to 10000 nM.

`CC1(C)C(=O)N([C@H]2CC(C)(C)N(CCCC(=O)O)C2=O)c2c(F)cc(C3CC3)c(F)c21` (single isomer, unassigned) [Compound 25B]: under setting [1], the IC50 was ≥ 10000 nM. Still for that read-out and setting: next, `Cc1cc(N2C(=O)C(C)(C)c3c(F)c(C4CC4)cc(F)c32)c(=O)n(CCCC(=O)O)c1` [Compound 5, 4-(3-(5-cyclopropyl-4,7-difluoro-3,3-dimethyl-2-oxoindolin-1-yl)-5-methyl-2-oxopyridin-1(2H)-yl)butanoic acid]: 1000 to 10000 nM; `C[C@@H](CC(=O)O)CN1CC[C@@H](N2C(=O)C(C)(C)c3c(F)c(C4CC4)cc(F)c32)C1=O` (single isomer, unassigned) [Compound 26A*]: 300 to 500 nM. Take `CC1(C)C(=O)N([C@@H]2CCN(CCCC(=O)O)C2=O)c2c(F)cc(C3CC3)c(F)c21` [Compound 16A, (R)-4-(3-(5-cyclopropyl-4,7-difluoro-3,3-dimethyl-2-oxoindolin-1-yl)-2-oxopyrrolidin-1-yl)butanoic acid]: under setting [1], the IC50 was < 300 nM. The same measure, in the same setting: next, `C[C@@H](CCC(=O)O)N1CC[C@H](N2C(=O)C(C)(C)c3c(F)c(C4CC4)cc(F)c32)C1=O` (single isomer, unassigned) [Compound 24C*]: ≥ 10000 nM. As to `CC1(C)C(=O)N([C@@H]2CCN(CCCC(=O)O)C2=O)c2c(F)cc(C3CC3)cc21` (stereo in doubt) [Compound 22A*, (R)-4-(3-(5-cyclopropyl-7-fluoro-3,3-dimethyl-2-oxoindolin-1-yl)-2-oxopyrrolidin-1-yl)butanoic acid], the “hWB NLRP3 inhibitory activity compared to the (S)-isomer” value is “more active isomer”. Under setting [1], the IC50 is < 300 nM.

Turning to `Cc1ccc(N2C(=O)C(C)(C)c3c(F)c(C4CC4)cc(F)c32)c(=O)n1CCCC(=O)O` [Compound 6, 4-(3-(5-cyclopropyl-4,7-difluoro-3,3-dimethyl-2-oxoindolin-1-yl)-6-methyl-2-oxopyridin-1(2H)-yl)butanoic acid], the IC50 under setting [1] was 1000 to 10000 nM. Same read-out and setting: to `CC1(C)C(=O)N([C@H]2CCN(CCCC(=O)O)C2=O)c2c(F)cc(C3CC3)c(F)c21` [Compound 16B, (S)-4-(3-(5-cyclopropyl-4,7-difluoro-3,3-dimethyl-2-oxoindolin-1-yl)-2-oxopyrrolidin-1-yl)butanoic acid] belongs 1000 to 10000 nM; to `CC1(C)C(=O)N([C@@H]2CCN(CCCC(=O)O)C2=O)c2c(F)cc(Cl)c(F)c21` (stereo in doubt) [Compound 23A, (R)-4-(3-(5-chloro-4,7-difluoro-3,3-dimethyl-2-oxoindolin-1-yl)-2-oxopyrrolidin-1-yl)butanoic acid], 1000 to 10000 nM. Consider `CC1(C)C(=O)N([C@@H]2CCN(CCCC(=O)O)C2=O)c2ccc(C3CC3)c(F)c21` (stereo in doubt) [Compound 18A*, (R)-4-(3-(5-cyclopropyl-4-fluoro-3,3-dimethyl-2-oxoindolin-1-yl)-2-oxopyrrolidin-1-yl)butanoic acid], for which, under “R-isomer versus S-isomer 18B*, Table D”, the “fold more active than 18B* (hWB IL-1β IC50)” value is > 147 fold. Also, the half-inhibitory concentration (IC50) reads like this: under setting [1], 1000 to 10000 nM; under setting [2], 3400 nM. `CC1(C)C(=O)N(c2cccn(CCCC(=O)O)c2=O)c2c(F)cc(Br)cc21` [Compound 1, 4-(3-(5-bromo-7-fluoro-3,3-dimethyl-2-oxoindolin-1-yl)-2-oxopyridin-1(2H)-yl)butanoic acid]: the IC50 under setting [1] lay within 1000 to 10000 nM. For `CC1(C)C(=O)N([C@@H]2CCN(CCCC(=O)O)C2=O)c2c(F)cc(C(F)(F)F)c(F)c21` (stereo in doubt) [Compound 19A*, (R)-4-(3-(4,7-difluoro-3,3-dimethyl-2-oxo-5-(trifluoromethyl)indolin-1-yl)-2-oxopyrrolidin-1-yl)butanoic acid], the “hWB NLRP3 inhibitory activity compared to the (S)-isomer” value is reported as “more active isomer”. Also, the IC50 under setting [1] was < 300 nM.

For `CC1(C)C(=O)N(c2ccnn(CCCC(=O)O)c2=O)c2c(F)cc(C3CC3)c(F)c21` [Compound 11, 4-(5-(5-cyclopropyl-4,7-difluoro-3,3-dimethyl-2-oxoindolin-1-yl)-6-oxopyridazin-1(6H)-yl)butanoic acid], where the note is “additional ring N atom versus Compound 3 with lactam ring N as sole N ring atom, Table E”, the “fold improvement in activity compared to Compound 3 (hWB IL-1β IC50)” value is reported as 3-5 fold. Also, the IC50 is, setting by setting: under setting [1], 500 to 1000 nM; under setting [2], 610 nM. For `CC1(C)C(=O)N(c2nccn([C@H]3CCC[C@@H]3CC(=O)O)c2=O)c2c(F)cc(C3CC3)c(F)c21` (single isomer, unassigned) [Compound 20C*], the IC50 under setting [1] lay in the range of 500 to 1000 nM.

Take `CC1(C)C(=O)N(c2nccn(CCCC(=O)O)c2=O)c2ccc(C3CC3)c(F)c21` [Compound 21, 4-(3-(5-cyclopropyl-4-fluoro-3,3-dimethyl-2-oxoindolin-1-yl)-2-oxopyrazin-1(2H)-yl)butanoic acid]: the IC50 under setting [1] lay in the range of 1000 to 10000 nM.

Take `C[C@H](CCC(=O)O)N1CC[C@@H](N2C(=O)C(C)(C)c3c(F)c(C4CC4)cc(F)c32)C1=O` (single isomer, unassigned) [Compound 24D*]: the IC50 under setting [1] fell in the range of 1000 to 10000 nM. With `CC1(C)C(=O)N(c2cc(-c3ccccc3)cn(CCCC(=O)O)c2=O)c2c(F)cc(C3CC3)c(F)c21` [Compound 13, 4-(3-(5-cyclopropyl-4,7-difluoro-3,3-dimethyl-2-oxoindolin-1-yl)-2-oxo-5-phenylpyridin-1(2H)-yl)butanoic acid], the IC50 under setting [1] is ≥ 10000 nM. As for `CC1(C)C(=O)N(c2cc3ccccc3n(CCCC(=O)O)c2=O)c2c(F)cc(C3CC3)c(F)c21` [Compound 9, 4-(3-(5-cyclopropyl-4,7-difluoro-3,3-dimethyl-2-oxoindolin-1-yl)-2-oxoquinolin-1(2H)-yl)butanoic acid], the IC50 under setting [1] lay in the range of 1000 to 10000 nM. Turning to `CC1(C)C(=O)N(c2nccn(CCCC(=O)O)c2=O)c2c(F)cc(C(F)(F)F)c(F)c21` [Compound 17, 4-(3-(4,7-difluoro-3,3-dimethyl-2-oxo-5-(trifluoromethyl)indolin-1-yl)-2-oxopyrazin-1(2H)-yl)butanoic acid], the IC50 under setting [1] is 500 to 1000 nM. Consider `CC1(C)C(=O)N(c2cc(C3CC3)cn(CCCC(=O)O)c2=O)c2c(F)cc(C3CC3)c(F)c21` [Compound 14, 4-(5-cyclopropyl-3-(5-cyclopropyl-4,7-difluoro-3,3-dimethyl-2-oxoindolin-1-yl)-2-oxopyridin-1(2H)-yl)butanoic acid], for which, under setting [1], the IC50 was in the range of 1000 to 10000 nM.

With `C[C@@H](CCC(=O)O)N1CC[C@@H](N2C(=O)C(C)(C)c3c(F)c(C4CC4)cc(F)c32)C1=O` (single isomer, unassigned) [Compound 24A*], under setting [1], the IC50 was in the range of 300 to 500 nM.
